Results from a melting point compilation (Tetko et al.; mined from patent text by program, amines drawn as free bases though some values may be those of a salt).

| SMILES | melting point |
| --- | --- |
| O=[N+]([O-])c1cnccc1NCc1ccccc1 | 100 to 104 °C |
| COCOc1ccc(CCNC(=O)/C(C#N)=C/c2cccnc2)cc1 | 105 to 106 °C |
| CCCc1ccc(OC)c(-c2csc(NC(=O)NN3CCN(CCCN4CCOCC4)CC3)n2)c1 | 229 °C |
| COc1cc(C(=O)O)nc(-c2cccc([N+](=O)[O-])c2)c1 | 207 to 210 °C |
| O=C1N(Cc2nnc(-c3ccccc3)o2)c2ccccc2C12COc1cc3c(cc12)OCO3 (configuration not stated) | 151 to 153 °C |
| COC(=O)c1ccncc1SCc1ccccc1 | 80 °C |
| CCOP(=O)(CS(=O)(=O)Oc1ccccc1)OCC | 50.5 to 51.5 °C |
| COC(=O)C(OC)c1ccc2nc(-c3ccc(Cl)cc3)oc2c1 (configuration not stated) | 131 to 132 °C |
| Cn1ncc(/C=C/C(=O)Nc2ccc(Cc3nnco3)cc2)c1-c1ccc(F)cc1 | 223 to 224 °C |
| CCCCc1oc2ccccc2c1C(=O)Nc1ccc(-c2ccc(OCC#N)cc2)cc1 | 143 to 144 °C |
| CC(C(O)CCc1ccc(OC(F)(F)F)cc1)n1cncn1 (configuration not stated) | 69 °C |
| CCc1nc2c(N)nc3ccccc3c2n1CCCCSc1ncccn1 | 182 to 185 °C |
| COc1cc(OCCOc2ccccc2)c2c(=O)[nH]c(-c3cc(C)nc(C)c3)nc2c1 | 172 to 173 °C |
| CC(C)(Oc1ccc(C(=O)CN2CCN(c3ccncc3)CC2)cc1)C(=O)O | 163 to 167 °C |
| CCOC(=O)c1c[nH]c2nc(NCc3ccccc3)nn2c1=O | 275 to 278 °C |
| Clc1ccc(OCc2ccc3ccccc3n2)cc1Cl | 80.5 to 82 °C |
| Nc1nc(-c2nn(Cc3ccccc3F)c3ncccc23)nc(N)c1Cc1ccccc1 | 193 °C |
| CCOC(=O)c1c(C)nc2c(c1N)c1ccccc1n2Cc1ccccc1 | 139 to 140 °C |
| CC(C)C[C@H](NC(=O)N1CCCCCC1)C(=O)OCc1ccccc1 | 79 to 82 °C |
| Cc1ccc(S(=O)(=O)n2cc(F)c(=O)[nH]c2=O)cc1 | 241 to 242 °C |
| CCOc1csc2c(=O)c(SC)cn(C)c12 | 214 to 217 °C |
| O=[N+]([O-])c1c(Cl)ccc(S(=O)(=O)Oc2ccccc2)c1Cl | 91 °C |
| N#CC(C(=O)NC1CCC1)C(=O)C1CC1 (configuration not stated) | 110 to 111 °C |
| COCC(=O)C1CCC2C3CCC4CC(OC(C)=O)CCC4(C)C3C(=O)CC12C (configuration not stated) | 93 °C |
| CNc1ccc2ccccc2c1-c1c(P(c2ccccc2)c2ccccc2)ccc2ccccc12 | 100 °C |
| O=C(O)c1ccc(/C=C/c2ccccc2-c2cccs2)cc1 | 208 to 210 °C |

| SMILES | melting point |
| --- | --- |
| Cc1nc(C)c(C(=O)Nc2ccc(-n3nc(C4CC4)cc3C3CC3)cc2)s1 | 98 to 114 °C |
| CC(C)OC(=O)N1CCC(c2nc3cc(-c4ccc(C(N)=O)cn4)ccc3o2)CC1 | 227 to 230 °C |
| COCc1nnc(-c2cccnc2)n1-c1c(Cl)c(Cl)cc2[nH]c(=O)c(=O)[nH]c12 | 222 to 224 °C |
| OCc1cccc(-n2cccc2)c1Br | 78 to 80 °C |
| CCOC(=O)c1c(-c2ccccc2)c2cc(Cl)ccc2n(C)c1=O | 124 to 125 °C |
| CCn1nc2oc(CO)c(C)c2c1C | 124 to 126 °C |
| Cn1nnc(-c2cc(-c3ccc(F)cc3)sc2-c2ccc(F)cc2)n1 | 150 to 152 °C |
| O=c1oc2ccccc2n1CCCCl | 62 to 64 °C |
| CC(=CC(=O)c1cccc(C(F)(F)F)c1)N(C)C | 69 to 70 °C |
| N#Cc1cc(C2CCCO2)nn1-c1ccc(NC(=O)c2ccncc2F)cc1 (configuration not stated) | 160 to 162 °C |
| Nc1nc2ccc(SSc3ccc4nc(N)[nH]c4c3)cc2[nH]1 | 245 °C |
| Cc1cc(C)cc(NC(=O)Cc2ccc(OC3(C(=O)O)CCCC3C)cc2)c1 (configuration not stated) | 184 to 186 °C |
| N[C@H](C1CCCCC1)C(O)(c1ccccc1)c1ccccc1 | 181 to 182 °C |
| COCCOC(=O)N1c2cc(Cl)ccc2NC(=O)[C@@H]1C | 93 to 94 °C |
| COc1ccc(/C=C/C(=O)C#CC(=O)O)cc1 | 98 to 100 °C |
| O=C1CCC(c2cc(F)c(Br)cc2F)C1 (configuration not stated) | 63 to 65 °C |
| Cc1ccc(NC(=O)c2cn(-c3ccccc3)c3ccccc3c2=O)nc1 | 248 to 250 °C |
| CNCc1cccc(-c2ccc(CC3SC(=O)NC3=O)c(C)c2)c1 (configuration not stated) | 135 °C |
| c1cn(Cc2ccc3c(c2)Cc2c(-c4ccsc4)n[nH]c2-3)nn1 | 250 to 254 °C |
| COc1cc(COc2nn(-c3ccccc3)cc2CC(=O)O)ccc1OCc1nc(-c2ccco2)oc1C | 179 to 180 °C |
| Cc1cc(-n2cncn2)c2cccc(OCc3c(Cl)ccc(S(=O)(=O)N4CCC[C@H]4C(=O)N4CCN(c5ccccn5)CC4)c3Cl)c2n1 | 108 °C |
| COc1ccc(-c2nnn(-c3ccc(C(F)(F)F)cc3Cl)c2CO)cc1 | 131 to 132 °C |
| CCN(CC)P(N)(N)=S | 54 to 58 °C |
| CC(C)NC(=S)N1CCc2[nH]cnc2C1C1CCCCC1 (configuration not stated) | 218 °C |
| Cc1nn(C(=O)NCC2CC2(Cl)Cl)c(=O)n1N (configuration not stated) | 149 °C |
| CC(C)CCCCCCCC=CC1CC(=O)N(NC(=O)CCc2cc(C(C)(C)C)c(O)c(C(C)(C)C)c2)C1=O (configuration not stated) | 62 to 68 °C |
